For data set [1], the system named is maximal electroshock seizures. Briefly: Maximal electroshock seizure test. It counts as in vivo. The following applies: albino mice, intraperitoneal, 140 minutes after injection of test compound. The text has this:
Effect Against Maximal Electroshock Seizures. […] Given intraperitoneally to albino mice these compounds have afforded complete protection from maximal electroshock seizures for several hours. To test the maximal seizure anticonvulsant properties in albino mice weighing approximately 25 grams, first an electrical current was delivered via cranial electrodes at a voltage strength which induced a typical maximal electroconvulsant seizure in all the mice. Maximal tonic electrochock seizures were induced with 2 to 7 milliamperes being discharged at 18 volts, and at a frequency of 1000 per second. Abolition of the hindlimb tonic extension component of the seizure was defined as protection in this maximal electroshock test (L. S. Goodman et al., Jour. Pharm. Exper. Therap., 108: 168, 1953). The apparatus used was structured so that the current administered was independent of external resistance. There were 10 animals per group, and they were exposed to electroshock seizures at 20, 80 and 140 minutes after injection of the test compounds. The mice received graded doses of the compounds, and the dose protecting 50% of the animals was calculated biometrically.

Data set [2] can be described thus: Intraperitoneal LD50 (Table 2). It counts as in vivo.
Data set [3] concerns pentylenetetrazol-induced seizures. Briefly: Pentylenetetrazol (Metrazol) seizure test. It counts as in vivo. Particulars: pentylenetetrazol 120 mg/kg i.p. 30 minutes after compound. The method, then:
Effect Against Pentylenetetrazol (Metrazol) Seizures. […] The pentylenetetrazol (metrazol), 120 mg/kg, was injected intraperitoneally 30 minutes after the oral administration of the respective graded doses of the compounds. Protection in this test was defined as a failure to detect even a single episode of clonic spasms of at least 5 seconds duration during a 30 minute period following the injection of the metrazol (F. M. Berger, 78:277, 1951). […] Exper. Med. Biol., against pentylenetetrazol seizures ([…] al., Epilepsia, 19: 193-408, 1978).

The nature of the next data set: Oral LD50 (Table 3). In kind it is in vivo.
Data set [4] has as its system Bullfrog sciatic nerve trunk (de-sheathed). Nature of the data set: Frog sciatic nerve trunk high frequency stimulation. The following applies: 10 mM. The text has this: Pirfenidone: Effect on Frog Sciatic Nerve Trunk High Frequency Stimulation. Bullfrog sciatic nerve trunk (de-sheathed) was stimulated with trains of pulses at 200 Hertz in order to see if pirfenidone affected the nerve's ability to conduct high frequency impulses. […] Drugs that cause “use-dependent” block (high frequency failure) are generally regarded as potential anti-epileptic drugs.

The test system of data set [5] is cat soleus muscle nerve preparation. Nature of the data set: Cat soleus muscle nerve preparation, neuromuscular function. Particulars: for Single impulse transmission: cat soleus muscle nerve preparation. In kind it is in vivo. The text has this:
Pirfenidone: Effect on Neuromuscular Function of the Cat Soleus Muscle Nerve Preparation. […] The action resembles that of phenytoin (J. A. Wada, Arch. Neurol., 34: 389–395, 1977).

The nature of data set [6]: Plasma concentration after oral dosing in man. In kind it is in vivo. The method, then:
In laboratory animals or in man, pirfenidone is well absorbed after oral administration. Plasma pirfenidone concentrations in man peak 1 to 4 hours after dosing. Metabolically, first order kinetics prevail over a daily dose range of 1200 to 3600 milligrams of pirfenidone in divided dosage (t.i.d.). Pirfenidone is cleared primarily by hepatic metabolism (S. Giri et al., Amer. Thoracic Soc. International Conf., Apr. 24-29, 1998) mainly hydroxylation and conjugation, and excreted primarily in the urine. […] The highly rapid and efficient oral bioavailability of pirfenidone in humans contrasts with that of oral phenytoin. In man, absorption of phenytoin after oral ingestion is slow, often variable and can be incomplete so that peak or effective concentrations in plasma and tissues may be delayed for 3 or more hours (E. Perucca and […], “Handbook of Exper. Pharmacol.,” Vol. 74: 831-855, 1985, Springer-Verlag, Berlin.)

In a further data set the test system is nerve after-discharge. Briefly: After-discharge on electrical nerve stimulation (neuropharmacological tests in cat and frog). The following applies: cat and frog demonstrations. From the text: However, the molecular mechanism of the anticonvulsant action within neuronal cells remains unknown.
The subject of data set [7] is pentylenetetrazol-induced seizures. The following applies: literature (Krall et al.); cited from earlier work.
For data set [8] the following is noted: man; cited from earlier work.

Take `O=c1ccccn1-c1ccccc1` [1-phenyl-2-(1H)-pyridone, reference compound]: in data set [1], the “I.P. ED50 (dose protecting 50% of mice against maximal electroshock seizures)” value is “No Activity”. In data set [2], the “I.P. LD50” value is greater than 500 mg/kg. Besides, the “ORAL ED50 (dose protecting 50% of mice against pentylenetetrazol-induced seizures)” value in [3] is given as “No Activity”. Also, the “ORAL LD50” value in “Oral LD50 (Table 3)” amounted to 540 ± 124 mg/kg.

With `Cc1cccn(-c2ccccc2)c1=O` [3-methyl-1-phenyl-2-(1H)-pyridone], in [1], the “I.P. ED50 (dose protecting 50% of mice against maximal electroshock seizures)” value was “No Activity”. The “I.P. LD50” value in [2] is greater than 500 mg/kg. The “ORAL ED50 (dose protecting 50% of mice against pentylenetetrazol-induced seizures)” value in [3] was “No Activity”. In the data set “Oral LD50 (Table 3)”, the “ORAL LD50” value was determined as 650 ± 110 mg/kg.

Take `CCc1ccc(=O)n(-c2ccccc2)c1` [5-ethyl-1-phenyl-2-(1H)-pyridone]: the “I.P. ED50 (dose protecting 50% of mice against maximal electroshock seizures)” value in data set [1] amounted to 60 ± 10 mg/kg. In data set [2], the “I.P. LD50” value is 500 ± 61 mg/kg. Moreover, in data set [3], the “ORAL ED50 (dose protecting 50% of mice against pentylenetetrazol-induced seizures)” value was 285 ± 29 mg/kg. Further, in “Oral LD50 (Table 3)”, the “ORAL LD50” value was found to be 425 ± 48 mg/kg.

As for `Cc1ccc(=O)n(-c2ccccc2)c1` [5-methyl-1-phenyl-2-(1H)-pyridone], the “I.P. ED50 (dose protecting 50% of mice against maximal electroshock seizures)” value in data set [1] amounted to 85 ± 11 mg/kg. In addition, the “I.P. LD50” value in data set [2] turned out to be 600 ± 43 mg/kg. The “ORAL ED50 (dose protecting 50% of mice against pentylenetetrazol-induced seizures)” value in data set [3] came to 325 ± 41 mg/kg. Further, the “ORAL LD50” value in the data set “Oral LD50 (Table 3)” turned out to be 610 ± 34 mg/kg. Besides, in data set [4], the “Conduction of high frequency impulses (200 Hertz pulse trains)” value was “caused definite high frequency failure” and the “Local anesthesia in the nerve” value is “did not cause local anesthesia”. The “Post-tetanic potentiation (PTP)” value in [5] (50 mg/kg intravenously) is listed as “suppresses the post-tetanic potentiation”. Also, in [5], the Single impulse transmission entry was “Neither pirfenidone nor phenytoin impair”. For the same compound, in data set [6], the “Time of peak plasma concentration after dosing” value was 1 to 4 h. In the data set on nerve after-discharge, the “Block of the classical after-discharge when a nerve is electronically stimulated” value is “completely block”.

With `O=C1NC(=O)C(c2ccccc2)(c2ccccc2)N1` [phenytoin (Dilantin), phenytoin, reference compound], the “I.P. ED50 (dose protecting 50% of mice against maximal electroshock seizures)” value in data set [1] stood at 50 ± 15 mg/kg. In addition, the “I.P. LD50” value in data set [2] was found to be 200 ± 45 mg/kg. For the same compound, in [3], the “ORAL ED50 (dose protecting 50% of mice against pentylenetetrazol-induced seizures)” value is given as “No Activity”. For the same compound, the “ORAL LD50” value in the data set “Oral LD50 (Table 3)” was found to be 490 ± 35 mg/kg. Moreover, in [5], the Single impulse transmission result is recorded as “Neither pirfenidone nor phenytoin impair”. In the data set on nerve after-discharge, the “Block of the classical after-discharge when a nerve is electronically stimulated” value was “completely block”. In data set [7], the “Activity against pentylenetetrazol seizures” value is “inactive”. For the same compound, the “Delay of peak or effective concentrations in plasma and tissues after oral ingestion” value in data set [8] was no less than 3 h.

Source of the values: patent US6956044B1, “Compositions and methods for treatment of epilepsy” (priority 2000, dated 2005).
